B1: S100A8/A9: recombinant S100A8/A9, heterocomplex of two S100 calcium binding proteins (calprotectin) (protein, UniProt P27005 2-89; P31725 2-113, looked up)
Protein S100-A8: PSELEKALSNLIDVYHNYSNIQGNHHALYKNDFKKMVTTECPQFVQNINIENLFRELDINSDNAINFEEFLAMVIKVGVASHKDSHKE
Protein S100-A9: ANKAPSQMERSITTIIDTFHQYSRKEGHPDTLSKKEFRQMVEAQLATFMKKEKRNEALINDIMEDLDTNQDNQLSFEECMMLMAKLIFACHEKLHENNPRGHGHSHGKGCGK

Columns and labels:
PMN [1] = experiment: S100A8/A9 release by PMN measured by ELISA; type: cell-based, mouse; details: PMN treated with NE with or without ICI-118,551
Experimental: PMN or PMN-MDSC were isolated from spleen of tumor-free mice or LLC tumor-bearing mice, respectively. A total of 5×10^5 LLC cells were injected into the right flank of mice, and spleens were harvested when tumors reached 200 mm^2. Spleens were mechanically dissociated. Red blood cells were lysed with ACK buffer cells. Splenocytes were stained with mouse biotin-conjugated Ly6G antibody (Miltenyi Biotec) followed by biotin microbeads. Ly6G+ cells were purified by magnetic separation with MACS column for magnetic cell isolation, according to the manufacturer's instructions (Miltenyi Biotec).
One hundred microliters of mouse peripheral blood was collected from facial vein. NE was measured by a mouse NE ELISA Kit (Novus Biologicals). S100A8/A9 was measured by Mouse S100A8/S100A9 Heterodimer DuoSet ELISA (R&D Systems). S100A8/A9 concentrations in human serum samples were determined by using a double-sandwich ELISA system as previously described (64), which is different from commercial ELISA kits. Human NE was measured using an ELISA kit (Abnova).

KPr^p53A cells = experiment: In vivo stress induction, NOD/SCID mice injected with KPr^p53A cells and PMN; design: species or system mouse
Excerpt: A total of 2.5×10^4 KPr^p53A cells were intravenously injected to NOD/SCID mice. Beginning 3 weeks after injection, mice were imaged weekly. Luciferin (PerkinElmer) was intraperitoneally injected in mice before imaging according to the manufacturer's instruction. Mice were imaged with IVIS Spectrum In Vivo Imaging System (IVIS, PerkinElmer) to detect luminescent signal coming from growing cancer cells. Mice were put under anesthesia in the induction chamber with isoflurane vaporizer set to 2.5%, at a flow rate of ˜1.5 liters/min. Mice were then transferred in the IVIS imaging stage nose cone inside the IVIS manifold (IVIS manifold nose cones flow set to ˜0.25 LPM). Animals were monitored by video during imaging. Once the images of luciferase/luciferin activity were acquired, the anesthesia was turned off and the animals were returned to their cages. […] Analysis and quantification were performed with IVIS imaging system Living Image Software 4.7.4 (PerkinElmer). […] When signal was detected, mice were sacrificed, and bioluminescent images of the harvested lung were taken. […] If no bioluminescence was detected in lungs after 80 days from last PMN injection, experiments were terminated, and lung tissue were collected. […] Bioluminescence was not detected in any LL2^CisA-injected mice at 3 weeks after injection. Mice were treated with PMN or PMN-MDSC and analyzed as described above. […]

MPO = MPO activity in neutrophils; type: cell-based, mouse; details: S100A8/A9 5 μg/ml or LPS 2 μg/ml
Experimental: Neutrophils were isolated from tumor-free mice as described above, and MPO activity was measured with an MPO Fluorometric Activity Assay Kit (Sigma-Aldrich) using a VICTOR spectrophotometer (PerkinElmer).

PMN [2] = experiment: ROS production in PMN (DCFDA, flow cytometry); type: cell-based, mouse
Excerpt: FIG. 14A-FIG. 14B show the effect of S100A9 on PMN activity. (FIG. 14A) DCFDA measured by flow cytometry in PMN treated with S100A8/A9 or NE. Each dot represents an individual mouse. Mean±SEM are shown. (FIG. 14B) qRT-PCR of Ptges, Ptgs2, and Arg1 expression in mouse PMN treated with S100A8/A9 or NE. Each dot represents an individual mouse. Mean±SEM are shown.

PMN [3] = experiment: qRT-PCR of Ptges, Ptgs2 and Arg1 in PMN; type: cell-based, mouse
Experimental: RNA from tumor cells or PMN was extracted from snap-frozen pellets with Quick-RNA Microprep or Quick-RNA Miniprep (Zymo Research) per the manufacturer's instructions. cDNA was prepared with a High-Capacity cDNA Reverse Transcription Kit with RNase Inhibitor (Thermo Fisher Scientific) per the manufacturer's instructions. qRT-PCR was performed in an ABI QuantStudio 5 Rm 422 machine (Applied Biosystems).

Molecule	NE-mediated secretion of S100A8/A9 by PMN (PMN [1])	growth of KPr^p53A cells in lung and liver of stressed mice injected with PMN (KPr^p53A cells; 1 mg/kg i.p. daily during stress induction)	survival of stressed tumor-bearing mice (KPr^p53A cells; humane end-points, n=10 per group)	MPO enzymatic activity in PMN (MPO)	ROS production in PMN (PMN [2])	expression of Arg1, Ptgs2, or Ptges in PMN (PMN [3])
Cc1ccc(OCC(O)C(C)NC(C)C)c2c1CCC2 (stereo not drawn) [ICI-118,551]	abrogated the NE-mediated secretion of S100A8/A9 by PMN	abrogated this effect	markedly improved survival			
B1				activated MPO in PMN	no effect on ROS production	little or no effect on expression of Arg1, Ptgs2, or Ptges
